Measured values taken from the supplement of paper PMC13207355.

Experiments:
Conditions in all cases: exposure time: 72 h
E21 [1] = patient-derived glioblastoma stem cells of mesenchymal subtype; assay: phenotypic distance (Euclidean, principal components) from DMSO controls (arbitrary units); higher = stronger morphological change
E34 [2] = patient-derived glioblastoma stem cells of proneural subtype; assay: as above
E13 [3] = patient-derived glioblastoma stem cells of classical subtype; assay: as above
E31 [4] = patient-derived glioblastoma stem cells of proneural subtype; assay: as above
E57 [5] = patient-derived glioblastoma stem cells of mesenchymal subtype; assay: as above
FT3469 [6] = normal neural stem cell line; assay: as above
E28 [7] = patient-derived glioblastoma stem cells of classical subtype; assay: as above
E21 [8] = assay: surviving fraction (nuclei count normalised to DMSO); higher = more cells surviving (less toxic)
E34 [9] = assay: as above
E13 [10] = assay: as above
E31 [11] = assay: as above
E57 [12] = assay: as above
FT3469 [13] = assay: as above
E28 [14] = assay: as above
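Throughout, for phenotypic distance (Euclidean, principal components) from DMSO controls: cell Painting imaging in 384-well plates, CellProfiler features reduced to at least 20 principal components, Euclidean distance versus same-plate DMSO vehicle wells (0.1% v/v), median over six images per well.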
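Throughout, for surviving fraction (nuclei count normalised to DMSO): nuclei counted by high-content imaging of Hoechst-stained cells in laminin-coated 384-well plates, relative to 0.1% DMSO vehicle wells, with staurosporine as cell-death control.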

COC(=O)Nc1nc2cc(C(=O)c3cccs3)ccc2[nH]1 [Nocodazole]
Conditions | phenotypic distance | surviving fraction
E13 [3], 4.11523 nM | 6.13 | –
E13 [3], 12.34567901 nM | 4.73 | –
E13 [3], 37.037 nM | 5.56 | –
E13 [3], 111.1111111 nM | 6.89 | –
E13 [3], 333.333 nM | 6.42 | –
E13 [3], 1000 nM | 6.56 | –
E13 [3], 3000 nM | 9.87 | –
E13 [10], 4.11523 nM | – | 0.286
E13 [10], 12.34567901 nM | – | 0.309
E13 [10], 37.037 nM | – | 0.238
E13 [10], 111.1111111 nM | – | 0.193
E13 [10], 333.333 nM | – | 0.228
E13 [10], 1000 nM | – | 0.186
E13 [10], 3000 nM | – | 0.178
E21 [1], 4.11523 nM | 4.87 | –
E21 [1], 12.34567901 nM | 4.76 | –
E21 [1], 37.037 nM | 8.31 | –
E21 [1], 111.1111111 nM | 9.95 | –
E21 [1], 333.333 nM | 9.8 | –
E21 [1], 1000 nM | 8.46 | –
E21 [1], 3000 nM | 9.75 | –
E21 [8], 4.11523 nM | – | 0.506
E21 [8], 12.34567901 nM | – | 0.54
E21 [8], 37.037 nM | – | 0.116
E21 [8], 111.1111111 nM | – | 0.101
E21 [8], 333.333 nM | – | 0.118
E21 [8], 1000 nM | – | 0.0883
E21 [8], 3000 nM | – | 0.083
E28 [7], 4.11523 nM | 2.22 | –
E28 [7], 12.34567901 nM | 2.63 | –
E28 [7], 37.037 nM | 2.97 | –
E28 [7], 111.1111111 nM | 3.74 | –
E28 [7], 333.333 nM | 3.59 | –
E28 [7], 1000 nM | 4.6 | –
E28 [7], 3000 nM | 5.85 | –
E28 [14], 4.11523 nM | – | 0.698
E28 [14], 12.34567901 nM | – | 0.609
E28 [14], 37.037 nM | – | 0.531
E28 [14], 111.1111111 nM | – | 0.353
E28 [14], 333.333 nM | – | 0.428
E28 [14], 1000 nM | – | 0.267
E28 [14], 3000 nM | – | 0.297
E31 [4], 4.11523 nM | 4.08 | –
E31 [4], 12.34567901 nM | 3.99 | –
E31 [4], 37.037 nM | 5.49 | –
E31 [4], 111.1111111 nM | 6.17 | –
E31 [4], 333.333 nM | 5.43 | –
E31 [4], 1000 nM | 11.1 | –
E31 [4], 3000 nM | 12 | –
E31 [11], 4.11523 nM | – | 0.262
E31 [11], 12.34567901 nM | – | 0.174
E31 [11], 37.037 nM | – | 0.135
E31 [11], 111.1111111 nM | – | 0.0743
E31 [11], 333.333 nM | – | 0.0743
E31 [11], 1000 nM | – | 0.058
E31 [11], 3000 nM | – | 0.0327
E34 [2], 4.11523 nM | 3.24 | –
E34 [2], 12.34567901 nM | 3.27 | –
E34 [2], 37.037 nM | 4.43 | –
E34 [2], 111.1111111 nM | 4.49 | –
E34 [2], 333.333 nM | 5.97 | –
E34 [2], 1000 nM | 8.12 | –
E34 [2], 3000 nM | 7.56 | –
E34 [9], 4.11523 nM | – | 0.543
E34 [9], 12.34567901 nM | – | 0.541
E34 [9], 37.037 nM | – | 0.488
E34 [9], 111.1111111 nM | – | 0.469
E34 [9], 333.333 nM | – | 0.394
E34 [9], 1000 nM | – | 0.316
E34 [9], 3000 nM | – | 0.433
E57 [5], 4.11523 nM | 5.26 | –
E57 [5], 12.34567901 nM | 5.57 | –
E57 [5], 37.037 nM | 7.85 | –
E57 [5], 111.1111111 nM | 6.23 | –
E57 [5], 333.333 nM | 6.48 | –
E57 [5], 1000 nM | 6.95 | –
E57 [5], 3000 nM | 6.12 | –
E57 [12], 4.11523 nM | – | 0.452
E57 [12], 12.34567901 nM | – | 0.418
E57 [12], 37.037 nM | – | 0.143
E57 [12], 111.1111111 nM | – | 0.067
E57 [12], 333.333 nM | – | 0.0805
E57 [12], 1000 nM | – | 0.0687
E57 [12], 3000 nM | – | 0.104
FT3469 [6], 4.11523 nM | 3.38 | –
FT3469 [6], 12.34567901 nM | 3.38 | –
FT3469 [6], 37.037 nM | 3.11 | –
FT3469 [6], 111.1111111 nM | 2.9 | –
FT3469 [6], 333.333 nM | 3.84 | –
FT3469 [6], 1000 nM | 5.03 | –
FT3469 [6], 3000 nM | 4.79 | –
FT3469 [13], 4.11523 nM | – | 0.562
FT3469 [13], 12.34567901 nM | – | 0.573
FT3469 [13], 37.037 nM | – | 0.619
FT3469 [13], 111.1111111 nM | – | 0.474
FT3469 [13], 333.333 nM | – | 0.582
FT3469 [13], 1000 nM | – | 0.382
FT3469 [13], 3000 nM | – | 0.353
